Assay results published in patent US5188642A, “Glyphosate-resistant plants” (priority 1990, dated 1993).

How the values were obtained:
EPSPS = EPSPS (Escherichia coli, UniProt P0A6D3); type: biochemical, E. coli
Excerpt: This mutant bacterium was designated E. coli 11303 SM-1. The aroA gene encoding EPSPS from this mutant bacterium was isolated as follows.
Isolation of aroA gene encoding EPSPS from E. coli 11303 SM-1: The DNA from this bacterium was isolated (Marmur, J. (1961) J. Mol. Biol. 3:208-218). […] This fragment was cloned into the vector pKC7 (Rao, R. N. & Rogers, S. G. (1979), Gene, F. Jul. 7, 1982) and the resulting plasmid was used for trans-formation of E. coli. […] This clone was designated pMON9538. […] This clone was designated pMON9540. […] The E. coli mutant EPSPS gene was incorporated into plant transformation vector with and without a chloroplast transit peptide in the following manner.

tomato leaf fragments = assay: Tomato leaf callus assay on glyphosate; type: cell-based, tomato VF36; settings: 0.5 mM glyphosate, 10 days
Protocol: Sterile seedlings of VF36 tomato are grown on water agar. Hypocotyls and cotyledons are excised and cultured for 2 days on MS medium containing B5 vitamins, 30 g/l sucrose and 1 mg/l benzyladenine and 0.1 mg/l indole acetic acid. The seedlings are then infected with the A. tumefaciens vector containing the chimeric EPSPS gene described in Example 2, by immersing for about 30 seconds in a culture of A. tumefaciens containing the chimeric EPSP synthase gene that had been diluted to 10^7 bacteria/ml. Explants are obtained by cutting sections from the seedlings. The explants are blotted dry and incubated as described previously in Example 2 except that the medium contains only 10% of standard concentration of MS salts. After 2 days of coculture, the explants are transferred to selective medium containing 100 ug/ml kanamycin. Transformed tomato plants grow from the explants. Leaves from these plants are tested for glyphosate resistance using a leaf callus assay described below. Tomato leaf fragments from plants containing vector alone (pMON200) or the pMON546 chimeric EPSPS gene are incubated on callus medium described above containing 0.5 mM glyphosate.

MP4 cells = assay: Culture of MP4 petunia suspension cells in MS media containing glyphosate; type: cell-based; settings: 0.5 mM glyphosate (sodium salt)
Protocol: The starting cell line, designated as the MP4 line, was derived from a Mitchell diploid petunia (see, e.g., Ausubel 1980). The MP4 cells were suspended in Murashige and Skoog (MS) culture media, (GIBCO, Grand Island, N.Y.) All transfer involved the transfer of 10 ml of suspension culture into 50 ml of fresh media. Cultivation periods until the next transfer ranged from 10 to 14 days, and were based on visual indications that the culture was approaching saturation.
After two transfers, the surviving cells were transferred into fresh media containing 1.0 mM glyphosate. After two transfers at 1.0 mM, the surviving cells were transferred sequentially into 2.5 mM glyphosate, 5.0 mM glyphosate, and 10 mM glyphosate. The MP4-G cells were subsequently shown (by a Southern blot) to have about 15-20 copies of the EPSPS gene, due to a genetic process called "gene amplification" (see, e.g., Schimke 1982). Although spontaneous mutations might have occurred during the replication of any cell, there is no indication that any mutation or other modification of the EPSPS gene occurred during the gene amplification process. The only known difference between the MP4 and the MP4-G cells is that the MP4-G cells contain multiple copies of an EPSPS gene and possibly other genes located near it on the chromosomes of the cells.

soybean callus = assay: Soybean callus growth on MS medium with glyphosate; type: cell-based, Glycine canescens
Protocol: Sterile hypocotyl pieces of Glycine canescens, a type of soybean, were infected with the A. tumefaciens strain containing the chimeric EPSPS gene as described in Example 2. Nurse culture plates were made which contained a medium of 10% of the normal level of MS salts (GIBCO), B5 vitamins, 3 g/l sucrose, 2 mg/l napthalene acetic acid, 1 mg/l benzyladenine, and 0.5 mM arginine. The pH was adjusted to 5.7 before autoclaving.
The infected soybean hypocotyls were incubated at 26° C. for two days and transferred to a similar medium (except that the MS salts were not diluted) and additionally containing 500 mg/l carbenicillin, 100 mg/l cefotaxime and 100 mg/l kanamycin. Under these conditions, only transformed soybean callus was able to grow.
Control tissue was produced using A. tumefaciens cells containing the helper Ti plasmid pTiT37-SE and a plant transformation vector pMON200. See Fraley et al, Biotechnology Vol. 3, 1985, described herein. The co-integrate pTiT37-SE contained a T-DNA region with a NOS/NPTII/NOS kanamycin resistance gene and a NOS scorable marker gene identical to pMON200, but without the CaMV 35S/EPSPS/NOS gene.
After 14-17 days, soybean callus transformed with either the vector alone (pMON200 plasmid) or with the vector containing a chimeric EPSPS gene was transferred to petri dishes containing MS medium and 0, 0.5 mM or 1.0 mM glyphosate.
Within 18-20 days after transfer to the media containing glyphosate, actively growing callus tissue appeared in all dishes containing no glyphosate.

tobacco leaf disks = assay: Callus growth from tobacco leaf disks on glyphosate; type: cell-based, N. tabacum; settings: for callus tissue formation: 0.5 mM glyphosate
Excerpt: Leaf disks were excised from tobacco plants (N. tabacum) and treated as described above with A. tumefaciens cells containing pMON546 (or pMON505, for control cells) and helper plasmid pGV3111-SE.

EPSPS, sequence (P0A6D3 whole entry): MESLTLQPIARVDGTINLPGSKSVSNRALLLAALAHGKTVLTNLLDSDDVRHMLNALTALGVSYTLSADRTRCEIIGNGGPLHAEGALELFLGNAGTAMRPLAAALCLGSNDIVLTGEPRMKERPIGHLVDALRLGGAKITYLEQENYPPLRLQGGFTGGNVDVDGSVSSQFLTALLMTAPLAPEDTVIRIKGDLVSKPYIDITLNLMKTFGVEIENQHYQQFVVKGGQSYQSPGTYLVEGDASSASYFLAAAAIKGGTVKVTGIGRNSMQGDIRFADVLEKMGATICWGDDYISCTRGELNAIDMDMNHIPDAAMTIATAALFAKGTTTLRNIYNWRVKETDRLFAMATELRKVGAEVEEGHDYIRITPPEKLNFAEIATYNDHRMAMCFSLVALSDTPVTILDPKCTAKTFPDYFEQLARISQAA

O=C(O)CNCP(=O)(O)O [glyphosate, N-phosphonomethylglycine]
glyphosate sensitivity of EPSPS (EPSPS; EPSPS of mutant cells (E. coli 11303 SM-1) compared with wild type E. coli): significantly different from that of wild type | glyphosate tolerance of EPSPS (EPSPS; EPSPS produced by hybrid K-12/11303 SM-1 aroA gene (pMON9540)): retained its glyphosate tolerance | callus growth from leaves (tomato leaf fragments; control leaves (pMON200 vector alone)): completely inhibited and showed no signs of callus growth | callus growth from leaves (tomato leaf fragments; leaves from plants transformed with chimeric EPSPS gene (pMON546)): produced callus | viability at 500 µM (MP4 cells; estimated, read-out: cells which survived, share of the starting population): < 1% | ability of cells to reproduce (MP4 cells; MS media): large majority of cells were unable to reproduce | callus growth (soybean callus; callus colonies containing the chimeric EPSPS gene, 0.5 mM glyphosate, 18-20 days): showed definite growth | callus growth (soybean callus; control callus (pMON200 vector alone), 0.5 mM glyphosate, 18-20 days): little growth in the dishes containing control callus | callus growth (soybean callus; control tissues (pMON200), 1.0 mM glyphosate): no callus growth from the control tissues | callus growth (soybean callus; transformed callus containing the chimeric EPSPS gene, 1.0 mM glyphosate): some growth of the transformed callus | callus tissue formation (tobacco leaf disks; cells transformed with CaMV/EPSPS gene (pMON546)): created substantial amounts of callus tissue | callus tissue formation (tobacco leaf disks; control cells without the gene (pMON505)): did not create any detectable callus tissue | glyphosate resistance of transformed tobacco cells (tobacco leaf disks; pMON542, E. coli mutant EPSPS construct with CTP): resulted in glyphosate resistance | glyphosate resistance of transformed tobacco cells (tobacco leaf disks; pMON8078, E. coli mutant EPSPS construct without CTP): failed to confer glyphosate resistance
